pEC50: −log10 of the molar value. Like-named read-outs stand apart in the source and are kept apart here.
Legend:
human MC4 receptor = target: T1, human MC4 receptor (Homo sapiens, UniProt P32245); assay: Human MC4 receptor activation, cAMP production in cells transiently expressing the receptor; format: cell-based; details: FreeStyle 293-F cells expressing human MC4 receptor, α-MSH maximum = 100%
T1 construct: expressed in transfected cells; host or cells: FreeStyle 293-F cells (transient, electroporation)
From the text: (§1) (1) Construction of Human MC Receptor-Expressing Vector
(§2) A human MC4 receptor gene (GenBank Accession No.: NM_005912.2), a human MC1 receptor gene (GenBank Accession No.: NM_002386.3), or a human MC3 receptor gene (GenBank Accession No.: NM_019888.3) was introduced into an expression vector pcDNA™ 3.1N/V5-His TOPO (registered trademark) (Thermo Fisher Scientific Inc).
(§3) (2) Construction of Cells Transiently Expressing Human MC Receptor
(§4) An expression vector for a human MC4, MC1, or MC3 receptor was introduced into FreeStyle™ 293-F cells (Thermo Fisher Scientific Inc., product number: R790-07). For the introduction, electroporation was employed. That is, 1×10^7 FreeStyle™ 293-F cells were suspended in 80 μL of an Electroporation Buffer (Thermo Fisher Scientific Inc., product number: B201-100), and 20 μg of the expression vector was added thereto. The resultant was put into a cuvette (OC-100 Processing Assembly, MaxCyte, Inc.) and electroporated with MaxCyte STX (registered trademark) (MaxCyte, Inc.). The cells were cultured for a day, suspended in a Cell Banker (registered trademark) 1 (TAKARA BIO INC. or JUJI FIELD Inc., product number: BLC-1), and stored frozen until they were used.
(§5) (3) Measurement of Amount of cAMP Production
(§6) Measurement was carried out by using a LANCE (registered trademark) Ultra cAMP Kit (PerkinElmer, Inc.) in accordance with the attached instructions. That is, after dissolution in DMSO, the test compound (a final concentration of 1 pM to 30 μM) diluted with an assay buffer (Hank's balanced salt solution, 5 mM 4-(2-hydroxyethyl)-1-piperazineethanesulfonic acid (HEPES), 0.5 mM 3-isobutyl-1-methylxanthine (IBMX), 0.1% bovine serum albumin, pH 7.4), or α-MSH (Bachem Inc., a final concentration of 1 pM to 30 μM) was added to OptiPlate-384 (PerkinElmer, Inc.). Furthermore, the suspension of the cells transiently expressing the human MC4, MC1, or MC3 receptor prepared using the assay buffer was added thereto at 1,000 cells/well, and then left to stand at room temperature for about 1 hour. Thereafter, an Eu-cAMP tracer solution and an ULight™-anti-cAMP solution were added thereto, and then the resulting solution was left to stand at room temperature for about 1 hour. The amount of cAMP was calculated using EnVision (registered trademark) (PerkinElmer Inc.).
(§7) For the agonistic activity, the efficacy (EC50 (μM)) was calculated by a non-linear regression method with a Sigmoid-Emax model, by defining the maximum reaction using α-MSH as 100% and the reaction using the vehicle alone as 0%, respectively.

human MC1 receptor = target: T2, human MC1 receptor (Homo sapiens, UniProt Q01726); assay: Human MC1 receptor activation, cAMP production in cells transiently expressing the receptor; format: cell-based; details: FreeStyle 293-F cells expressing human MC1 receptor, α-MSH maximum = 100%
T2 construct: expressed in transfected cells; host or cells: FreeStyle 293-F cells (transient, electroporation)
From the text: as §1, §2, §3, §4, §5, §6, §7

human MC3 receptor = target: T3, human MC3 receptor (Homo sapiens, UniProt P41968); assay: Human MC3 receptor activation, cAMP production in cells transiently expressing the receptor; format: cell-based; details: FreeStyle 293-F cells expressing human MC3 receptor, α-MSH maximum = 100%
T3 construct: expressed in transfected cells; host or cells: FreeStyle 293-F cells (transient, electroporation)
From the text: as §1, §2, §3, §4, §5, §6, §7

[1] = tested on: phenylephrine-induced urethral pressure increase; assay: Effect on rat urethral pressure (phenylephrine-induced urethral pressure increase); format: in vivo; details: read-out: ID40
Procedure: The present Test Example was performed by partially modifying the technique reported as a testing system for evaluating a urethral resistance-reducing action (European Journal of Pharmacology, 679, 127-131 (2012)). Male Wistar rats (Charles River Laboratories Japan, Inc.) were anesthetized with urethane (1.2 g/kg ip), and immobilized in a supine position. The midline incision was performed in the lower abdominal portion such that the bladder was exposed. The bladder apex was incised, and from the incision site, a microchip pressure transducer catheter (3.5 Fr, Millar, Inc) was inserted and implanted into the inside of the urethra. In addition, a cannula for drug administration was implanted into the femoral vein. After the urethral pressure was stabilized, phenylephrine hydrochloride (Sigma-Aldrich Co. LLC., 30 μg/kg) was intravenously administered to induce an increase in the urethral pressure. At an interval of about 30 minutes, the above operation was repeated twice or more so as to confirm the stability of the phenylephrine hydrochloride-induced urethral pressure increasing reaction. Then, a test compound (dissolved in 20% dimethyl acetamide, 10% Cremophor (registered trademark), and 70% physiological saline) was intravenously administered, and after 5 minutes, phenylephrine hydrochloride was administered. The procedure of the administration of the test compound and the administration of phenylephrine hydrochloride was repeated at an interval of about 30 minutes, and 3 to 5 doses of the test compound was evaluated (the test compound was administered at increasing doses). The obtained data was introduced into a personal computer through PowerLab (registered trademark) (ADInstruments, Inc.) and analyzed using LabChart (registered trademark) (ADInstruments, Inc.). For the evaluation, the value (AUC value, mmHg-s) of the area under the urethral pressure for one minute before and after administration of phenylephrine hydrochloride was determined to calculate the difference (ΔAUC value) between the AUC value before the administration of phenylephrine hydrochloride and the AUC value after the administration of phenylephrine hydrochloride. The ΔAUC value obtained before administering the test compound was regarded as being 100%, and based on this, the ratio (reaction rate) of the ΔAUC value of the test compound at each dose was calculated. The dose at which the obtained reaction rate became 60% (40% as an inhibition rate) was defined as ID40, and the ID40 values of the test compounds were calculated by non-linear regression.

rat MC4 receptor = target: T4, rat MC4 receptor (Rattus norvegicus, UniProt P70596); assay: Rat MC4 receptor activation, cAMP production in cells transiently expressing the receptor; format: cell-based; details: FreeStyle 293-F cells expressing rat MC4 receptor, α-MSH maximum = 100%
T4 construct: expressed in transfected cells; host or cells: FreeStyle 293-F cells (transient, electroporation)
From the text: (1) Construction of Rat MC4 Receptor-Expressing Vector
A rat MC4 receptor gene (GenBank Accession No.: NM_013099.3) was introduced into an expression vector pcDNA™ 3.1N/V5-His TOPO (registered trademark) (Thermo Fisher Scientific Inc.).
(2) Construction of Cells Transiently Expressing Rat MC4 Receptor
as §4, with “rat MC4” for “human MC4, MC1, or MC3”, “Inc.).” for “Inc., product number: R790-07).”, “electroporation buffer” for “Electroporation Buffer”, “Inc.),” for “Inc., product number: B201-100),”, “Inc.),” for “Inc., product number: BLC-1),”
as §5
Measurement was carried out in accordance with the attached instructions, using a LANCE (registered trademark) Ultra cAMP Kit (PerkinElmer, Inc.). That is, after dissolution in DMSO, the test compound (a final concentration of 1 pM to 30 μM) diluted with an assay buffer (Hank's balanced salt solution, 5 mM HEPES, 0.5 mM IBMX, 0.1% bovine serum albumin, pH 7.4), or α-MSH (Bachem Inc., a final concentration of 1 pM to 30 μM) was added to OptiPlate-384 (PerkinElmer, Inc.). Furthermore, the suspension of the cells transiently expressing the rat MC receptor that was prepared using the assay buffer was added thereto at 1,000 cells/well, and then left to stand at room temperature for about 1 hour. Thereafter, an Eu-cAMP tracer solution and an ULight™-anti-cAMP solution were added thereto, and the resulting solution was left to stand at room temperature for about 1 hour. The amount of cAMP was calculated using EnVision (registered trademark) (PerkinElmer Inc).
For the agonistic activity, an efficacy (EC50 (μM)) was calculated by a non-linear regression method with a Sigmoid-Emax model, by defining the maximum reaction using α-MSH as 100% and the reaction using a vehicle alone as 0%, respectively.

[2] = male Wistar rats, urethane anesthesia, intravenous, dose giving 40% inhibition of phenylephrine-induced urethral pressure ΔAUC

T1 sequence (P32245 whole entry): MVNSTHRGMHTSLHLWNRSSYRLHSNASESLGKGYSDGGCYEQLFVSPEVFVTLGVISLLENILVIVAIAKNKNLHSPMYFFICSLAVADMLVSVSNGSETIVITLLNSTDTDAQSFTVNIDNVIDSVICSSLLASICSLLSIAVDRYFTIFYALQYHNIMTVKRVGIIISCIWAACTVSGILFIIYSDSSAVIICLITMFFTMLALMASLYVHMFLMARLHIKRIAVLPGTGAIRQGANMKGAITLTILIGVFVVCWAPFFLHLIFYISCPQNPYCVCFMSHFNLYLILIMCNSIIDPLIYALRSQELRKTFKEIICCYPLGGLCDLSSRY
T3 sequence (P41968 whole entry): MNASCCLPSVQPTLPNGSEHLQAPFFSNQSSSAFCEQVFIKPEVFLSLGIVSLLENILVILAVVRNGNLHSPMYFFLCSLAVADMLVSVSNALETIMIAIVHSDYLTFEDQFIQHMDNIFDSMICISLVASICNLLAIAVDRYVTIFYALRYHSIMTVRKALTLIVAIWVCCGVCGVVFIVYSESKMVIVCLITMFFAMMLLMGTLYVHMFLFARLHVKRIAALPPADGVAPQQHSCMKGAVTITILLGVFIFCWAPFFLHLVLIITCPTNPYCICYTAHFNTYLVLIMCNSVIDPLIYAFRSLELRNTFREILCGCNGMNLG
T2 sequence (Q01726 whole entry): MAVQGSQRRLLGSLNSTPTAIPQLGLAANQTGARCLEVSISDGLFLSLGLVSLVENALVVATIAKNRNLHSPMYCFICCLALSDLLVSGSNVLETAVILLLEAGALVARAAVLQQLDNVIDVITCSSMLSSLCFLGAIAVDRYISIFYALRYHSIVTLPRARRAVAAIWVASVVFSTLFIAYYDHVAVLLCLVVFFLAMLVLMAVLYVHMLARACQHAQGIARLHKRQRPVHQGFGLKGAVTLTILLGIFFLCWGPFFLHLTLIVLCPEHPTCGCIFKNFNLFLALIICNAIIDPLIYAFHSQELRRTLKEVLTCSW
T4 sequence (P70596 whole entry): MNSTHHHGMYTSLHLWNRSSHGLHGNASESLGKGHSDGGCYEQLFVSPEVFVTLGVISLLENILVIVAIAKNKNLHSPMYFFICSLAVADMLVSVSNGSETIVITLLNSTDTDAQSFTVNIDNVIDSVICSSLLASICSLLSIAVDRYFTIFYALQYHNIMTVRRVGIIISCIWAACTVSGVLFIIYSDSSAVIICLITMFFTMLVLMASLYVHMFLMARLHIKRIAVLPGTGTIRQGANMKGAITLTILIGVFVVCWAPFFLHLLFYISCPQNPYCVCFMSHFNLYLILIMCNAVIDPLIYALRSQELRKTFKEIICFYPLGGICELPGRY

| pEC50 (human MC4 receptor) | pEC50 (rat MC4 receptor) | Structure (SMILES) | pEC50 (human MC1 receptor) | pEC50 (human MC3 receptor) | ED40 ([1]; iv) | ED40 [1, 2] |
| --- | --- | --- | --- | --- | --- | --- |
| 7.85 |  | CC(=O)N[C@@H](CC1CCCC1)C(=O)N1CCN(C(=O)[C@@H]2CN(C(C)(C)C)C[C@H]2c2ccc(F)cc2F)[C@@H](C)C1.Cl [Example 16, N-((2S)-1-[(3S)-4-{[(3S,4R)-1-tert-butyl-4-(2,4-difluorophenyl)pyrrolidin-3-yl]carbonyl}-3-methylpiperazin-1-yl]-3-cyclopentyl-1-oxopropan-2-yl) acetamide monohydrochloride] |  |  |  | 11 mg/kg |
| 7.64 | 8.12 | CC(=O)N[C@@H](CC(C)(C)C)C(=O)N1CCN(C(=O)[C@@H]2CN(C3CCOCC3)C[C@H]2c2ccc(Cl)cc2F)[C@@H](C)C1.Cl [Example 20, N-{(2S)-1-[(3S)-4-{[(3 S,4R)-4-(4-chloro-2-fluorophenyl)-1-(tetrahydro-2H-pyran-4-yl)pyrrolidin-3-yl]carbonyl}-3-methylpiperazin-1-yl]-4,4-dimethyl-1-oxopentan-2-yl}acetamide monohydrochloride] | 5.10 | 5.92 |  | 40 mg/kg |

| Structure (SMILES) | pEC50 (human MC4 receptor) | pEC50 (rat MC4 receptor) | pEC50 (human MC1 receptor) | pEC50 (human MC3 receptor) | ED40 ([1]; iv) | ED40 [1, 2] |
| --- | --- | --- | --- | --- | --- | --- |
| CC(=O)N[C@@H](CC(C)(C)C)C(=O)N1C[C@H](C)N(C(=O)[C@@H]2CN(C3CCOCC3)C[C@H]2c2ccc(Cl)cc2F)C[C@H]1C [Example 3] | 8.10 |  | 5.24 | 6.51 | 8.9 mg/kg |  |
